# Test results from patent publication US20160339089A1, “IMMUNOGENIC/THERAPEUTIC GLYCOCONJUGATE COMPOSITIONS AND USES THEREOF” (OBI PHARMA, INC., priority 2014, published 2016).
# Key:
# Assay type in all cases: in vivo
# [1] = tested on: Globo H-specific IgM antibody; assay: Immunization in mice with different Globo H:KLH ratios and antibody test by ELISA; conditions: Balb/c mice, s.c. day 0, 7, 14, 21, with saponin adjuvant, sera, compared with PBS control or between weight ratios
# Procedure: Different samples of the glycoconjugates (Globo H-KLH) were stored at 4° C., and mixed with a saponin adjuvant under a laminar flow hood. The resultant vaccine compositions were placed on ice and transported to animal facility for subsequent immunization.
# Balb/c mice of approximately eight weeks old were given Globo H-KLH glycoconjugate with different carbohydrate-to-protein (Globo H: KLH) ratios once every week for four weeks (Day 0, 7, 14, and 21) via subcutaneous injection. Blood samples were collected through retro-orbital or facial vein without anticoagulant pre-immune or Day 0, and three days after each vaccination (Day 10, 17 and 24). Samples were then centrifuged to separate sera and red cells. Sera were collected and stored at −20° C., which were later analyzed by ELISA. Mann-Whitney t-test was used for statistical analysis.
# [2] = tested on: Globo H-specific IgG and IgM antibodies; assay: Globo H-specific antibody test by ELISA in plasma of immunized rats; conditions: Lewis rats, after immunization
# Procedure: (§1) Different samples of the glycoconjugates (Globo H-KLH) as prepared in Example 1 were stored at 4° C., and mixed with a saponin adjuvant under a laminar flow hood. The resultant vaccine compositions were placed on ice and transported to animal facility for subsequent immunization.
# (§2) The rats were immunized on day 0, 7, 14, and 21. Peripheral blood mononuclear cells (PBMC) and plasma were collected on day 0, 3, 10, 17, 24, and 31. Spleen, lymph node, and peritoneal wash were harvested on day 31.
# The production of Globo H-specific antibodies in the plasma from the immunized rats was determined by ELISA assay. […] There was no response of Globo H-specific IgG and IgM antibody in rats treated with PBS only.
# [3] = tested on: B cells and T cells (CD3T, CD4T, CD8T) in PBMC; assay: Analysis of immune effector cell subpopulations in PBMC of immunized rats by flow cytometry; conditions: Lewis rats, s.c. immunization day 0, 7, 14, 21 with saponin adjuvant
# Procedure: as §1, §2
# The peripheral blood mononuclear cells (PBMCs) were isolated from the animals and then various immune effector cell subpopulations in the PBMC were identified by flow cytometry using specific antibodies against different cell markers The PBMCs, isolated from the immunized rats on day 0, 3, 10, 17, 24, and 31, were stained with different fluorescence (FITC)-conjugated antibodies and placed on ice for 30 minutes.
substance,measurement,setting,value
Fucα(1→2) Galβ(1→3) GalNAcβ(1→3) Galα(1→4) Galβ(1→4) Gluβ(1-O-ethylhydrazyl-1-carbonyl-cyclohexyl-4-(methyl-N-maleimido)-3-(thiobutyl-imidyl)-Keyhole Limpet Hemocyanin (KLH) [OBI-822],Globo H-specific IgM antibody responses,[1],significantly induce
same,time at which titers of Globo H-specific IgG began to rise,[2],10 days
same,time at which titers of Globo H-specific IgG peaked,[2],17 days
same,"day at which CD3T, CD4T and CD8T cells appeared",[3],24 days
same,day at which the B cell population first appeared,[3],3 days
same,expansion of B cells and T cells compared to the PBS control group,[3]; flow cytometry,significantly expanded
